Laboratory results: patent publication US20090018134A1, “Compounds - 945” (AstraZeneca AB, priority 2007, published 2009)

Target: T1, mTOR (Homo sapiens, UniProt P42345)
T1 construct: FLAG; made in house
Test: In Vitro mTOR Kinase Assay (Echo), Test (a)(ii)
Assay type: biochemical
Settings: table of enzyme assay Test (a)(ii); read-out: Test (a)(ii) IC50
Method in brief: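 Inhibition of truncated mTOR (1362-2549, FLAG-tagged, purified from stably transfected HEK293 cells) is measured as reduced AlphaScreen signal from a phospho-T389-recognising antibody bound to the biotinylated peptide product. Kinase incubation lasts 2 hours at room temperature. Potency is given as IC50.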

T1 sequence (P42345 1362-2549): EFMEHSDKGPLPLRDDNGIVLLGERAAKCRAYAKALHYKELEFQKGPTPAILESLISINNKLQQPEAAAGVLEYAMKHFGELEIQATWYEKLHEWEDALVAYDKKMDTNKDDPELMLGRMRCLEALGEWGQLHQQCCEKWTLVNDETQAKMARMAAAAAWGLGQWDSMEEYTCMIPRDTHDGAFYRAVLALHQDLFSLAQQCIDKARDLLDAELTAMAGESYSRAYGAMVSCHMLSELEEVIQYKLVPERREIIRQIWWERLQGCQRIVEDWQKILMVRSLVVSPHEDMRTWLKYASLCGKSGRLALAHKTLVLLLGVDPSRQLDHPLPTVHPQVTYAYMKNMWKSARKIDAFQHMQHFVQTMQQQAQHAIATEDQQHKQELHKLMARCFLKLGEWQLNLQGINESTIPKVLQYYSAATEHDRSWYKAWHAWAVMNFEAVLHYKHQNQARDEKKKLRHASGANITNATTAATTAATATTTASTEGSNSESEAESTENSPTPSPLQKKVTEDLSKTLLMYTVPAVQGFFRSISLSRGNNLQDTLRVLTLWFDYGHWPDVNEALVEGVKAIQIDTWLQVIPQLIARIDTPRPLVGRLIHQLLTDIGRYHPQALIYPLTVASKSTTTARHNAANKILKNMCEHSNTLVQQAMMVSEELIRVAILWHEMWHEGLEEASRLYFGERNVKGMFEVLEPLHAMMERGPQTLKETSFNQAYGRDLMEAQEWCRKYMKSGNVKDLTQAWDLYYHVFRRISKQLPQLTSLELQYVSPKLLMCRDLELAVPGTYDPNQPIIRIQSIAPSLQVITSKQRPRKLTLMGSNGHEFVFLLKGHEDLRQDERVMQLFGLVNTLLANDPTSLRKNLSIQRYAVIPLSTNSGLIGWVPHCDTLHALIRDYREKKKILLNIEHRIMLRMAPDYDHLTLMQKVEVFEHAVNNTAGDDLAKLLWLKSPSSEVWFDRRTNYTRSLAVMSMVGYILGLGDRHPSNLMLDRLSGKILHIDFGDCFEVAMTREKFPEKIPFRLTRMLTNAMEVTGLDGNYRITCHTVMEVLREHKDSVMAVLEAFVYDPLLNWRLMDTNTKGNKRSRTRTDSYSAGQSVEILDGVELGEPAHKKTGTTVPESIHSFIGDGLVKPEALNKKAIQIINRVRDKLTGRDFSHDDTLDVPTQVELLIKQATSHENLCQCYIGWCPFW

Cc1cc(F)ccc1S(=O)(=O)C1(c2cc(N3CCOC[C@@H]3C)nc(-c3ccc(NC(=O)NCCO)cc3)n2)CC1 [Example 82b, 1-[4-[4-[1-(4-fluoro-2-methylphenyl)sulfonylcyclopropyl]-6-[(3S)-3-methylmorpholin-4-yl]pyrimidin-2-yl]phenyl]-3-(2-hydroxyethyl)urea]
IC50: 7.57 nM

C[C@H]1COCCN1c1cc(C2(S(=O)(=O)c3ccccc3Cl)CC2)nc(-c2ccc(NC(=O)NCCF)cc2)n1 [Example 76e, 1-[4-[4-[1-(2-chlorophenyl)sulfonylcyclopropyl]-6-[(3S)-3-methylmorpholin-4-yl]pyrimidin-2-yl]phenyl]-3-(2-fluoroethyl)urea]
IC50: 5.66 nM

C[C@H]1COCCN1c1cc(C2(S(=O)(=O)c3ccc(F)cc3F)CC2)nc(-c2ccc(NC(=O)NC3CC3)cc2)n1 [Example 57a, 3-cyclopropyl-1-[4-[4-[1-(2,4-difluorophenyl)sulfonylcyclopro-pyl]-6-[(3S)-3-methylmorpholin-4-yl]pyrimidin-2-yl]phenyl]urea]
IC50: 10.4 nM

C[C@H]1COCCN1c1cc(C2(S(=O)(=O)CCCO)CC2)nc(-c2ccc(NC(=O)NCC(F)F)cc2)n1 [Example 36cm, 3-(2,2-difluoroethyl)-1-[4-[4-[1-(3-hydroxypropylsulfonyl)cyclopropyl]-6-[(3S)-3-methylmorpholin-4-yl]pyrimidin-2-yl]phenyl]urea]
IC50: 9.46 nM

CC[C@H]1COCCN1c1cc(C2(S(=O)(=O)c3ccccc3)CC2)nc(-c2ccc(NC(=O)NC)cc2)n1 [Example 74, 1-[4-[4-[1-(Benzenesulfonyl)cyclopropyl]-6-[(3S)-3-ethylmorpholin-4-yl]pyrimidin-2-yl]phenyl]-3-methylurea]
IC50: 2.37 nM

C[C@H]1COCCN1c1cc(C2(S(=O)(=O)CCCO)CCC2)nc(-c2ccc(NC(=S)NCCCO)cc2)n1 [Example 99i, 3-(3-hydroxypropyl)-1-[4-[4-[1-(3-hydroxypropylsulfonyl)cyclobutyl]-6-[(3S)-3-methylmorpholin-4-yl]pyrimidin-2-yl]phenyl]thiourea]
IC50: 59.4 nM

C[C@H]1COCCN1c1cc(C2(S(C)(=O)=O)CCNCC2)nc(-c2ccc(NC(=O)Nc3cnn(C)c3)cc2)n1 [Example 20d, 1-[4-[4-[(3S)-3-methylmorpholin-4-yl]-6-(4-methylsulfonylpiperidin-4-yl)pyrimidin-2-yl]phenyl]-3-(1-methylpyrazol-4-yl)urea]
IC50: 13.3 nM

CNC(=S)Nc1ccc(-c2nc(N3CCOC[C@@H]3C)cc(C3(S(=O)(=O)c4ccc(F)cc4)CC3)n2)cc1 [Example 37s, 1-[4-[4-[1-(4-fluorophenyl)sulfonylcyclopropyl]-6-[(3S)-3-methylmorpholin-4-yl]pyrimidin-2-yl]phenyl]-3-methylthiourea]
IC50: 7.56 nM

CNC(=O)Nc1ccc(-c2nc(N3CCOC[C@@H]3C)cc(C3(S(=O)(=O)C4CC4)CCNCC3)n2)cc1 [Example 21a, 1-[4-[4-(4-cyclopropylsulfonylpiperidin-4-yl)-6-[(3S)-3-methylmorpholin-4-yl]pyrimidin-2-yl]phenyl]-3-methylurea]
IC50: 37.8 nM

C[C@H]1COCCN1c1cc(C2(S(=O)(=O)c3ccc(C(N)=O)cc3Cl)CC2)nc(-c2ccc(NC(=O)NC3CC3)cc2)n1 [Example 85b, 3-chloro-4-[1-[2-[4-(cyclopropylcarbamoylamino)phenyl]-6-[(3S)-3-methylmorpholin-4-yl]pyrimidin-4-yl]cyclopropyl]sulfonylbenzamide]
IC50: 5.26 nM

C[C@H]1COCCN1c1cc(C2(S(=O)(=O)c3ccc(C#N)cc3Cl)CC2)nc(-c2ccc(NC(=O)NC3CC3)cc2)n1 [Example 85g, 1-[4-[4-[1-(2-chloro-4-cyanophenyl)sulfonylcyclopropyl]-6-[(3S)-3-methylmorpholin-4-yl]pyrimidin-2-yl]phenyl]-3-cyclopropylurea]
IC50: 25.9 nM

C[C@H]1COCCN1c1cc(C2(S(=O)(=O)CCO)CC2)nc(-c2ccc(NC(=O)NCCC#N)cc2)n1 [Example 16g, 3-(2-cyanoethyl)-1-[4-[4-[1-(2-hydroxyethylsulfonyl)cyclopropyl]-6-[(3S)-3-methylmorpholin-4-yl]pyrimidin-2-yl]phenyl]urea]
IC50: 17.6 nM
